Measured values: patent publication US10570179B2, “Substituted urea depsipeptide analogs as activators of the CLPP endopeptidase” (priority 2016, dated 2020)
Values after ≈ are worked out from the molar mass of the structure shown. Where two headings read alike, the source gives them in different places. Numbered stars: 1 amine (or outer) side, 2 acyl side, 3 side chain; on linkers, the order of the positions; unused ones are H or OH. Bridge positions count the residues as written; N and C are the ends. Square brackets hold non-standard residues; d marks the D form. Peptide text beside a SMILES is read from it. * marks the point of attachment. X6 = O=C([C@@H]1CS(=O)(=O)CCN1[*:1])[*:2]; Phe(3-Me) = Cc1cccc(C[C@H](N)C(=O)O)c1; NH(4-Cl-2-F-phenyl) = Fc1cc(Cl)ccc1N*; Pro(4R-Me) = C[C@H]1CN[C@H](C(=O)O)C1; X1 = O=C([C@@H]1CSCCN1[*:1])[*:2]; Hyp = O=C(O)[C@@H]1C[C@@H](O)CN1; NH(4-Me-phenyl) = Cc1ccc(N*)cc1; aThr = C[C@H](O)[C@H](N)C(=O)O; CO = O=C([*:1])[*:2]

Assays:
E. faecails = test: Minimal inhibitory concentration, microbroth dilution; type: cell-based; settings: Enterococcus faecalis
In short: (§1)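 Growth inhibition was scored visually after overnight aerobic culture at 37 °C in CLSI-style microdilution plates. Inocula contained about 10^5 cfu/mL, and compound concentrations descended in twofold steps from 200 μM.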

S. aureus ATCC 29213 = test: as above; type: cell-based; settings: Staphylococcus aureus
In short: as §1

S. aureus USA 300 = test: as above; type: cell-based; settings: Staphylococcus aureus
In short: as §1

MRSA NRS70 = test: as above; type: cell-based; settings: Staphylococcus aureus
In short: as §1

[1] = Microsomal metabolic stability; type: in vitro ADME, mouse
Experimental: Compounds were initially prepared by dissolving them into DMSO at a final concentration of 10 mM. NADPH regenerating solutions A and B and mouse liver microsomes (CD-1) were obtained from BD Gentest (Woburn, Mass.). Ninety-six well deep well plates were obtained from MidWest Scientific Inc (Valley Park, Mo.).
Sample preparation for microsomal stability was modified from methods of Di, L., et al., Int J Pharm. 2005 Jun. 13; 297(1-2):110-9. A set of incubation times of 0, 15, 30, 60, 120, and 240 minutes were used. Mouse liver microsomal solutions were prepared by adding 58 μL of concentrated human or mouse liver microsomes (20 mg/mL protein concentration) to 1.756 mL of 0.1 M potassium phosphate buffer (pH 7.4) and 5 μL of 0.5 M EDTA to make a 0.6381 mg/mL (protein) microsomal solution. NADPH regenerating agent contained 113 μL of NADPH A, 23 μL of NADPH B, and 315 μL of 0.1 M potassium phosphate buffer (pH 7.4). The diluted test compound solutions (2 μL) were each added directly to a 1.79 mL of liver microsomal solution. This solution was mixed and 90 μL was transferred to 6 time points plates (each in triplicate wells). For the time 0 plate, 225 μL of cold acetonitrile with internal standard ([…] warfarin) was added to each well, followed by addition of NADPH regenerating agent (22.5 μL) and no incubation. For other five time points' plate, NADPH regenerating agent (22.5 μL) was added to each well to initiate the reaction. The plates were incubated at 37° C. for the required time, followed by quenching of the reaction by adding 225 μL of cold acetonitrile with internal standard (4 μg/ml warfarin). All of the plates were sealed and mixed well at 600 rpm for 10 minutes followed by centrifugation at 4000 rpm for 20 minutes. The supernatants (120 μL) were transferred to analytical plates for analysis by LCMS. LCMS conditions were described in the materials and instrumentation section above. The metabolic stability is evaluated via the half-life from least-squares fit of the multiple time points based on first-order kinetics.

[2] = MIC, read-out: Minimal Inhibitory Concentrations (μM) E. faecails
[3] = ATCC29213, MIC, read-out: Minimal Inhibitory Concentrations (μM) S. aureus ATCC 29213
[4] = USA300, MIC, read-out: Minimal Inhibitory Concentrations (μM) S. aureus USA 300
[5] = MIC, read-out: Minimal Inhibitory Concentrations (μM) MRSA NRS70
[6] = microsomal metabolic stability half-life, mouse liver microsomes

What does the source list for `Cc1cccc(C[C@H](NC(=O)Nc2ccc(Cl)cc2F)C(=O)N[C@@H]2C(=O)N3CCC[C@H]3C(=O)N3CCSC[C@H]3C(=O)N[C@@H](C)C(=O)N3C[C@H](C)C[C@H]3C(=O)O[C@H]2C)c1` [Compound 38, (S)-2-(3-(4-CHLORO-2-FLUOROPHENYL)UREIDO)-3-(M-TOLYL)-N-((6AS,12S,13S,15AS,17R,21S,23AR)-13,17,21-TRIMETHYL-6,11,15,20,23-PENTAOXOOCTADECAHYDRO-6H,11H,15H-DIPYRROLO[2,1-C:2′,1′-L][1,4]THIAZINO[3,4-I][1]OXA[4,7,10,13]TETRAAZACYCLOHEXADECIN-12-YL)PROPANAMIDE] ({NH(4-Cl-2-F-phenyl)-CO}-[Phe(3-Me)][aThr]P[X1]A[Pro(4R-Me)]; ester 2-C)?
MIC (E. faecails; [2]): 0.078 µM (≈ 0.0657 µg/mL); MIC (S. aureus ATCC 29213; [3]): 0.039 µM (≈ 0.0329 µg/mL); MIC (S. aureus USA 300; [4]): 0.078 µM (≈ 0.0657 µg/mL); MIC (MRSA NRS70; [5]): 0.039 µM (≈ 0.0329 µg/mL); Mouse ([1]; CD-1, mouse, pH 7.4): 1.25 ± .253 h

Which MIC (E. faecails; [2]) does the source give for `Cc1cccc(C[C@H](NC(=O)Nc2ccc(Cl)cc2F)C(=O)N[C@@H]2C(=O)N3CCC[C@H]3C(=O)N3CCS(=O)(=O)C[C@H]3C(=O)N[C@@H](C)C(=O)N3C[C@H](C)C[C@H]3C(=O)O[C@H]2C)c1` [Compound 40, (S)-2-(3-(4-CHLORO-2-FLUOROPHENYL)UREIDO)-3-(M-TOLYL)-N-((6AS,12S,13S,15AS,17R,21S,23AR)-13,17,21-TRIMETHYL-2,2-DIOXIDO-6,11,15,20,23-PENTAOXOOCTADECAHYDRO-6H,11H,15H-DIPYRROLO[2,1-C:2′,1′-L][1,4]THIAZINO[3,4-I][1]OXA[4,7,10,13]TETRAAZACYCLOHEXADECIN-12-YL)PROPANAMIDE] ({NH(4-Cl-2-F-phenyl)-CO}-[Phe(3-Me)][aThr]P[X6]A[Pro(4R-Me)]; ester 2-C) here?
Its MIC is 0.625 µM (≈ 0.546 µg/mL).

And the MIC (S. aureus ATCC 29213; [3])?
Its MIC is 1.25 µM (≈ 1.09 µg/mL).

And the MIC (S. aureus USA 300; [4])?
Its MIC is 1.25 µM (≈ 1.09 µg/mL).

What about the MIC (MRSA NRS70; [5]) of the same molecule?
The MIC was 0.625 µM (≈ 0.546 µg/mL).

And the “Mouse” value ([1]; CD-1, mouse, pH 7.4)?
Its value is 6.54 ± .543 h.

Which MIC (E. faecails; [2]) does the source give for `Cc1cccc(C[C@H](NC(=O)Nc2ccc(Cl)cc2F)C(=O)N[C@@H]2C(=O)N3C[C@H](O)C[C@H]3C(=O)N3CCSC[C@H]3C(=O)N[C@@H](C)C(=O)N3C[C@H](C)C[C@H]3C(=O)O[C@H]2C)c1` [Compound 41, (S)-2-(3-(4-CHLORO-2-FLUOROPHENYL)UREIDO)-N-((6AS,8R,12S,13S,15AS,17R,21S,23AR)-8-HYDROXY-13,17,21-TRIMETHYL-6,11,15,20,23-PENTAOXOOCTADECAHYDRO-6H,11H,15H-DIPYRROLO[2,1-C:2′,1′-L][1,4]THIAZINO[3,4-I][1]OXA[4,7,10,13]TETRAAZACYCLOHEXADECIN-12-YL)-3-(M-TOLYL)PROPANAMIDE] ({NH(4-Cl-2-F-phenyl)-CO}-[Phe(3-Me)][aThr][Hyp][X1]A[Pro(4R-Me)]; ester 2-C) here?
Its MIC is 0.625 µM (≈ 0.536 µg/mL).

And the MIC (S. aureus ATCC 29213; [3])?
The MIC was 0.31 µM (≈ 0.266 µg/mL).

And the MIC (S. aureus USA 300; [4])?
The MIC was 0.31 µM (≈ 0.266 µg/mL).

What about the MIC (MRSA NRS70; [5]) of the same molecule?
Its MIC is 0.156 µM (≈ 0.134 µg/mL).

What about the “Mouse” value ([1]; CD-1, mouse, pH 7.4) of the same molecule?
The value was 0.11 ± .113 h.

For `Cc1ccc(NC(=O)N[C@@H](Cc2cccc(C)c2)C(=O)N[C@@H]2C(=O)N3C[C@H](O)C[C@H]3C(=O)N3CCSC[C@H]3C(=O)N[C@@H](C)C(=O)N3C[C@H](C)C[C@H]3C(=O)O[C@H]2C)cc1` [Compound 42, (S)—N-((6AS,8R,12S,13S,15AS,17R,21S,23AR)-8-HYDROXY-13,17,21-TRIMETHYL-6,11,15,20,23-PENTAOXOOCTADECAHYDRO-6H,11H,15H-DIPYRROLO[2,1-C:2′,1′-L][1,4]THIAZINO[3,4-I][1]OXA[4,7,10,13]TETRAAZACYCLOHEXADECIN-12-YL)-3-(M-TOLYL)-2-(3-(P-TOLYL)UREIDO)PROPANAMIDE] ({NH(4-Me-phenyl)-CO}-[Phe(3-Me)][aThr][Hyp][X1]A[Pro(4R-Me)]; ester 2-C), which MIC (E. faecails; read-out: Minimal Inhibitory Concentrations (μM) E. faecails, MIC) is on record?
The MIC was 2.5 µM (≈ 2.05 µg/mL).

And the MIC (S. aureus ATCC 29213; ATCC29213, read-out: Minimal Inhibitory Concentrations (μM) S. aureus ATCC 29213, MIC)?
Its MIC is 1.25 µM (≈ 1.02 µg/mL).

And the MIC (S. aureus USA 300; USA300, read-out: Minimal Inhibitory Concentrations (μM) S. aureus USA 300, MIC)?
Its MIC is 2.5 µM (≈ 2.05 µg/mL).

And the MIC (MRSA NRS70; read-out: Minimal Inhibitory Concentrations (μM) MRSA NRS70, MIC)?
Its MIC is 1.25 µM (≈ 1.02 µg/mL).

What about the “Mouse” value [1, 6] of the same molecule?
The value was 0.78 ± .783 h.

With `Cc1ccc(NC(=O)N[C@@H](Cc2cccc(C)c2)C(=O)N[C@H]2COC(=O)[C@@H]3CCCN3C(=O)[C@H](C)NC(=O)[C@@H]3CCCCN3C(=O)[C@@H]3C[C@@H](O)CN3C2=O)cc1` [Compound 49, (S)—N-((6S,8AS,14AS,16R,20S,23AS)-16-HYDROXY-6-METHYL-5,8,14,19,23-PENTAOXOOCTADECAHYDRO-1H,5H,14H,19H-PYRIDO[2,1-I]DIPYRROLO[2,1-C:2′,1′-L][1]OXA[4,7,10,13]TETRAAZACYCLOHEXADECIN-20-YL)-3-(M-TOLYL)-2-(3-(P-TOLYL)UREIDO)PROPANAMIDE] as the molecule, how does the “Mouse” value [1, 6] read?
Its value is 4.37 ± .373 h.
